Source: publication PMC8296573, “Synthesis and Biological Evaluation of Fingolimod Derivatives as Antibacterial Agents” (ACS Omega, 2021)
Values after ≈ are worked out from the molar mass of the structure shown. Where two headings read alike, the source gives them in different places.

Key:
S. aureus ATCC 25923 [1] = assay: Antibacterial activity, post-exposure on preformed 18-h-old biofilms; assay type: cell-based, Staphylococcus aureus; conditions: for Average inhibition %, biofilms viability / Average inhibition %, planktonic cells viability / inhibition at 25 µM / inhibition at 50 µM / inhibition at 100 µM / inhibition at 200 µM: ± SD; for inhibition at 25 µM / inhibition at 50 µM / inhibition at 100 µM / inhibition at 200 µM: Staphylococcus aureus; for inhibition at 25 µM: ATCC25923, 25 µM; for inhibition at 50 µM: ATCC25923, 50 µM; for inhibition at 100 µM: ATCC25923, 100 µM; for inhibition at 200 µM: ATCC25923, 200 µM
Outline: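 Biofilms grown 18 h without compound, medium then replaced and compound added for a further 24 h. Planktonic OD and resazurin (20 μM final) fluorescence (ex 560/em 590 nm) read; washed biofilms stained with 20 μM resazurin 30 min at 37 °C, then ethanol-fixed and crystal violet-stained, absorbance 595 nm.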

S. aureus ATCC 25923 [2] = assay: Antibacterial activity, pre-exposure (planktonic cells and biofilm formation); assay type: cell-based, Staphylococcus aureus; conditions: for MIC / inhibition at 5 µM / inhibition at 10 µM / inhibition at 15 µM / inhibition at 25 µM: Staphylococcus aureus, ATCC25923; for inhibition at 5 µM / inhibition at 10 µM / inhibition at 15 µM / inhibition at 25 µM / Average inhibition %, biofilms viability / Average inhibition %, planktonic cells viability: pre-exposure, ± SD
Outline: (§1)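 Pre-exposure format: compounds added with bacteria, 18 h aerobic at 37 °C with shaking. Planktonic growth read by OD and resazurin (20 μM final) fluorescence; biofilms by resazurin viability then crystal violet biomass (A595). Resazurin incubation time/temperature varied by species.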

A. baumannii NCTC 13423 = assay: Antibacterial activity, pre-exposure; assay type: cell-based, Acinetobacter baumannii; conditions: for Average inhibition %, biofilms viability / Average inhibition %, planktonic cells viability / inhibition at 10 µM / inhibition at 15 µM / inhibition at 25 µM / inhibition at 50 µM: A. baumannii NCTC 13423, pre-exposure, ± SD; for inhibition at 10 µM / inhibition at 15 µM / inhibition at 25 µM / inhibition at 50 µM / MIC: Acinetobacter baumannii, NCTC13423
Outline: as §1

P. aeruginosa ATCC 9027 = assay: Antibacterial activity, pre-exposure; assay type: cell-based, Pseudomonas aeruginosa; conditions: for Average inhibition %, biofilms viability / Average inhibition %, planktonic cells viability / inhibition at 50 µM / inhibition at 100 µM / inhibition at 150 µM / inhibition at 200 µM: P. aeruginosa ATCC 9027, pre-exposure, ± SD; for MIC / inhibition at 50 µM / inhibition at 100 µM / inhibition at 150 µM / inhibition at 200 µM: Pseudomonas aeruginosa; for inhibition at 50 µM / inhibition at 100 µM / inhibition at 150 µM / inhibition at 200 µM: ATCC9027
Outline: as §1

[3] = read-out: Average inhibition %, biofilms biomass
[4] = read-out: Average inhibition %, planktonic cells turbidity
[5] = 10 µM, read-out: Average inhibition %, biofilms biomass
[6] = 10 µM, read-out: Average inhibition %, planktonic cells turbidity
[7] = 15 µM, read-out: Average inhibition %, biofilms biomass
[8] = 15 µM, read-out: Average inhibition %, planktonic cells turbidity
[9] = 25 µM, read-out: Average inhibition %, biofilms biomass
[10] = 25 µM, read-out: Average inhibition %, planktonic cells turbidity
[11] = 50 µM, read-out: Average inhibition %, biofilms biomass
[12] = 50 µM, read-out: Average inhibition %, planktonic cells turbidity

CCCCCCCCc1ccc(CC(N)(CO)CO)cc1 [Compound 44, 2-Amino-2-(4-octylbenzyl)propane-1,3-diol]
Average inhibition %, biofilms viability (S. aureus ATCC 25923 [1]; 25 µM): 21 ± 11.5% | Average inhibition %, planktonic cells viability (S. aureus ATCC 25923 [1]; 25 µM): 3.8 ± 6.6% | Average inhibition %, biofilms viability (S. aureus ATCC 25923 [1]; 50 µM): 38.2 ± 8.2% | Average inhibition %, planktonic cells viability (S. aureus ATCC 25923 [1]; 50 µM): 56.1 ± 15.4% | Inhibition of viability and total biomass of preformed biofilms (S. aureus ATCC 25923 [1]; 100 μM): at least 70% | Average inhibition %, biofilms viability (S. aureus ATCC 25923 [1]; 100 µM): 74 ± 21.5% | Average inhibition %, planktonic cells viability (S. aureus ATCC 25923 [1]; 100 µM): 99.8 ± 0.6% | Average inhibition %, biofilms viability (S. aureus ATCC 25923 [1]; 200 µM): 98.5 ± 0.1% | Average inhibition %, planktonic cells viability (S. aureus ATCC 25923 [1]; 200 µM): 100.1 ± 0.1% | inhibition at 25 µM (S. aureus ATCC 25923 [1]; [3]): 36 ± 3.3% | inhibition at 25 µM (S. aureus ATCC 25923 [1]; [4]): 6.1 ± 10.6% | inhibition at 50 µM (S. aureus ATCC 25923 [1]; [3]): 51.6 ± 10.7% | inhibition at 50 µM (S. aureus ATCC 25923 [1]; [4]): 58.6 ± 10.2% | inhibition at 100 µM (S. aureus ATCC 25923 [1]; [3]): 70.5 ± 19.2% | inhibition at 100 µM (S. aureus ATCC 25923 [1]; [4]): 84.7 ± 3.3% | inhibition at 200 µM (S. aureus ATCC 25923 [1]; [3]): 92 ± 1.2% | inhibition at 200 µM (S. aureus ATCC 25923 [1]; [4]): 85.9 ± 5.3% | MIC (S. aureus ATCC 25923 [2]; lowest concentration with no visible growth (>90% inhibition of turbidity and viability of planktonic cells), 18 h, read-out: MIC S. aureus ATCC 25923): 15 to 25 µM (≈ 4.4 to 7.34 µg/mL) | inhibition at 5 µM (S. aureus ATCC 25923 [2]; 5 µM, read-out: Average inhibition %, biofilms biomass): 23.2 ± 23.4% | inhibition at 5 µM (S. aureus ATCC 25923 [2]; 5 µM, read-out: Average inhibition %, planktonic cells turbidity): 18.4 ± 6.2% | inhibition at 10 µM (S. aureus ATCC 25923 [2]; [5]): 36.6 ± 27.8% | inhibition at 10 µM (S. aureus ATCC 25923 [2]; [6]): 31.2 ± 8.9% | inhibition at 15 µM (S. aureus ATCC 25923 [2]; [7]): 76.6 ± 21.5% | inhibition at 15 µM (S. aureus ATCC 25923 [2]; [8]): 79.2 ± 28.2% | inhibition at 25 µM (S. aureus ATCC 25923 [2]; [9]): 93.1 ± 4.2% | inhibition at 25 µM (S. aureus ATCC 25923 [2]; [10]): 99.1 ± 0.7% | MIC (S. aureus ATCC 25923 [2]; read-out: MIC (S. aureus)): 15 to 25 µM (≈ 4.4 to 7.34 µg/mL) | Average inhibition %, biofilms viability (S. aureus ATCC 25923 [2]; 5 µM): 24.9 ± 12.6% | Average inhibition %, planktonic cells viability (S. aureus ATCC 25923 [2]; 5 µM): 0 ± 0% | Average inhibition %, biofilms viability (S. aureus ATCC 25923 [2]; 10 µM): 44.4 ± 4.9% | Average inhibition %, planktonic cells viability (S. aureus ATCC 25923 [2]; 10 µM): 0 ± 0% | Average inhibition %, biofilms viability (S. aureus ATCC 25923 [2]; 15 µM): 76.2 ± 29.5% | Average inhibition %, planktonic cells viability (S. aureus ATCC 25923 [2]; 15 µM): 66.8 ± 54.1% | Average inhibition %, biofilms viability (S. aureus ATCC 25923 [2]; 25 µM): 99.7 ± 0% | Average inhibition %, planktonic cells viability (S. aureus ATCC 25923 [2]; 25 µM): 100 ± 0.2% | Average inhibition %, biofilms viability (A. baumannii NCTC 13423; 10 µM): 0.6 ± 1% | Average inhibition %, planktonic cells viability (A. baumannii NCTC 13423; 10 µM): 12.3 ± 2.4% | Average inhibition %, biofilms viability (A. baumannii NCTC 13423; 15 µM): 8.6 ± 7.8% | Average inhibition %, planktonic cells viability (A. baumannii NCTC 13423; 15 µM): 9.2 ± 5.8% | Average inhibition %, biofilms viability (A. baumannii NCTC 13423; 25 µM): 88.7 ± 15.2% | Average inhibition %, planktonic cells viability (A. baumannii NCTC 13423; 25 µM): 83.5 ± 27.6% | Average inhibition %, biofilms viability (A. baumannii NCTC 13423; 50 µM): 99.9 ± 1% | Average inhibition %, planktonic cells viability (A. baumannii NCTC 13423; 50 µM): 99.8 ± 0.5% | inhibition at 10 µM (A. baumannii NCTC 13423; [5]): 0% | inhibition at 10 µM (A. baumannii NCTC 13423; [6]): 0% | inhibition at 15 µM (A. baumannii NCTC 13423; [7]): 5.6 ± 6.5% | inhibition at 15 µM (A. baumannii NCTC 13423; [8]): 2.8 ± 3.7% | inhibition at 25 µM (A. baumannii NCTC 13423; [9]): 69.4 ± 13.7% | inhibition at 25 µM (A. baumannii NCTC 13423; [10]): 88.1 ± 19% | inhibition at 50 µM (A. baumannii NCTC 13423; [11]): 86.2 ± 2.3% | inhibition at 50 µM (A. baumannii NCTC 13423; [12]): 98.3 ± 1.2% | MIC (A. baumannii NCTC 13423; pre-exposure, Inactive = no activity up to 50 μM, > = some inhibition but no MIC reached, read-out: MIC A. baumannii NCTC 13423): 25 to 50 µM (≈ 7.34 to 14.7 µg/mL) | MIC (A. baumannii NCTC 13423; supplementary molecular formula strings sheet, read-out: MIC (A. baumannii)): 25 to 50 µM (≈ 7.34 to 14.7 µg/mL) | Average inhibition %, biofilms viability (P. aeruginosa ATCC 9027; 50 µM): 9 ± 8% | Average inhibition %, planktonic cells viability (P. aeruginosa ATCC 9027; 50 µM): 31.4 ± 12.8% | Average inhibition %, biofilms viability (P. aeruginosa ATCC 9027; 100 µM): 43 ± 44.4% | Average inhibition %, planktonic cells viability (P. aeruginosa ATCC 9027; 100 µM): 95.8 ± 3.5% | Average inhibition %, biofilms viability (P. aeruginosa ATCC 9027; 150 µM): 42.2 ± 50.3% | Average inhibition %, planktonic cells viability (P. aeruginosa ATCC 9027; 150 µM): 92.1 ± 9.3% | Average inhibition %, biofilms viability (P. aeruginosa ATCC 9027; 200 µM): 34.5 ± 36.6% | Average inhibition %, planktonic cells viability (P. aeruginosa ATCC 9027; 200 µM): 88.7 ± 10.2% | MIC (P. aeruginosa ATCC 9027; ATCC9027, pre-exposure, Inactive = no activity up to 200 μM, > = some inhibition but no MIC reached, read-out: MIC P. aeruginosa ATCC 9027): > 200 µM | MIC (P. aeruginosa ATCC 9027; ATCC9027, supplementary molecular formula strings sheet, read-out: MIC (P. aeruginosa)): > 200 µM | inhibition at 50 µM (P. aeruginosa ATCC 9027; [11]): 35.2 ± 19.9% | inhibition at 50 µM (P. aeruginosa ATCC 9027; [12]): 28.4 ± 10.9% | inhibition at 100 µM (P. aeruginosa ATCC 9027; 100 µM, read-out: Average inhibition %, biofilms biomass): 57.7 ± 30.4% | inhibition at 100 µM (P. aeruginosa ATCC 9027; 100 µM, read-out: Average inhibition %, planktonic cells turbidity): 93.7 ± 2.6% | inhibition at 150 µM (P. aeruginosa ATCC 9027; 150 µM, read-out: Average inhibition %, biofilms biomass): 54.7 ± 35.2% | inhibition at 150 µM (P. aeruginosa ATCC 9027; 150 µM, read-out: Average inhibition %, planktonic cells turbidity): 92.2 ± 4.8% | inhibition at 200 µM (P. aeruginosa ATCC 9027; 200 µM, read-out: Average inhibition %, biofilms biomass): 48.7 ± 28.5% | inhibition at 200 µM (P. aeruginosa ATCC 9027; 200 µM, read-out: Average inhibition %, planktonic cells turbidity): 88.5 ± 4.4%
